For orientation: IC50 means the midpoint of a concentration-inhibition curve. One may read the melting point as the temperature, or range, at which the solid turns liquid.

We go through 18 molecules from publication PMC9154796, “Triazoloquinoxalines-based DNA intercalators-Topo II inhibitors: design, synthesis, docking, ADMET and anti-proliferative evaluations” (Journal of Enzyme Inhibition and Medicinal Chemistry, 2022).

One data set deals with DNA. Put plainly: In vitro DNA/methyl green assay (DNA binding). As to conditions: DNA/methyl green displacement, mean ± SD of three experiments. The text has this: The extremely potent 6e, 7b, 7c, 7e and 7g were further assessed for their DNA-binding according to the reported procedure using methyl green dye[21]^,[22]^,[49]. DNA-binding affinities results were presented as IC50 and briefed in Table 3.
Methyl green dye can bind DNA to form coloured DNA/methyl green reversible complex. These complexes at neutral pH are still stable. The methyl green is displaced from DNA upon intercalating agents addition. Colourless carbinol was formed by the addition of H2O to the dye, leading to a dramatic decrease in spectrophotometric absorbance. ΔA value (the difference between DNA/methyl green complex and free cabinol) provides the simplest means for detecting the DNA-binding affinity and relative binding strength. IC50 values were determined using the GraphPadPrism 5.0 software[21]^,[22]^,[49].

Another data set deals with MCF-7. Description: MTT colorimetric anti-proliferative assay. The following applies: Homo sapiens, MCF7, 72 h, read-out: IC50 MCF-7.
Another data set has as its system HepG2. Description: MTT colorimetric anti-proliferative assay. As to conditions: Homo sapiens, HepG2, 72 h, read-out: IC50 HepG2.
The next data set concerns HCT116. Description: MTT colorimetric anti-proliferative assay. As to conditions: Homo sapiens, HCT-116, 72 h, read-out: IC50 HCT116.
The next data set has as its target human Topo II (Homo sapiens, UniProt P11388). Put plainly: In vitro topoisomerase II inhibitory activity. Format: biochemical. The following applies: supercoiled pHot1 DNA, mean ± SD of three experiments. As for the experimental part: A mixture of human Topo II (2 µl), substrate super coiled pHot1 DNA (0.25 µg), 50 µg/ml test compound (2 µl), and assay buffer (4 µl). […] Then, the DNA was run for 1–2 h on 1% agarose gel in BioRad gel electrophoresis system followed by staining with GelRedTM stain for 2 h and destained for 15 min with TAE buffer. The gel was imaged via BioRad’s Gel DocTMEZ system. Both supercoiled and linear strands of DNA were incorporated into the gel as markers for DNA-Topo II intercalators. By using the GraphPad Prism version 5.0, the values of IC50 were calculated. Each reaction was performed in duplicate, and at least three independent determinations of each IC50 were made.

The next data set concerns VERO normal cells. Description: Cytotoxicity against VERO normal cell lines. The format is cell-based. As to conditions: for IC50: Chlorocebus sabaeus, VERO normal cells, mean ± SD of three experiments; for fold safer in VERO normal cells compared to breast cancer cell lines (MCF-7): VERO versus MCF-7. The procedure: The cytotoxicity of these compounds against the cancer cell lines was from 3.41 to 9.51 µM. Derivatives 7b, 7c, 7e and 7g are respectively, 7.88, 10.81, 16.16 and 4.50 fold safer in VERO normal cells compared to breast cancer cell lines (MCF-7, the most sensitive cells).
The cytotoxicity assays were performed at Al-Azhar University, Pharmacology & Toxicology Department, Cairo, Egypt. Cancer cells from different cancer cell lines HCT-116, HepG2 and MCF-7, were purchased from ATCC, Manassas, USA and grown on the appropriate growth medium Roswell Park Memorial Institute medium (RPMI 1640) supplemented with […] of streptomycin, 100 units/mL of penicillin and 10% of heat-inactivated foetal bovine serum in a humidified, 5% (v/v) CO2 atmosphere at 37 °C Cytotoxicity assay by 3-[4,5-dimethylthiazole-2-yl]-2,5-diphenyltetrazolium bromide (MTT).
Cancer cell lines were trypsinized, counted and seeded into 96-well microtiter plates.

Data set [1] has as its system melanoma A375 cancer cells. The arrangement: method as in PMID 18513976. The following applies: cited from earlier work.

SMILES strings stand for the structures.

Chain of human Topo II (P11388 whole entry): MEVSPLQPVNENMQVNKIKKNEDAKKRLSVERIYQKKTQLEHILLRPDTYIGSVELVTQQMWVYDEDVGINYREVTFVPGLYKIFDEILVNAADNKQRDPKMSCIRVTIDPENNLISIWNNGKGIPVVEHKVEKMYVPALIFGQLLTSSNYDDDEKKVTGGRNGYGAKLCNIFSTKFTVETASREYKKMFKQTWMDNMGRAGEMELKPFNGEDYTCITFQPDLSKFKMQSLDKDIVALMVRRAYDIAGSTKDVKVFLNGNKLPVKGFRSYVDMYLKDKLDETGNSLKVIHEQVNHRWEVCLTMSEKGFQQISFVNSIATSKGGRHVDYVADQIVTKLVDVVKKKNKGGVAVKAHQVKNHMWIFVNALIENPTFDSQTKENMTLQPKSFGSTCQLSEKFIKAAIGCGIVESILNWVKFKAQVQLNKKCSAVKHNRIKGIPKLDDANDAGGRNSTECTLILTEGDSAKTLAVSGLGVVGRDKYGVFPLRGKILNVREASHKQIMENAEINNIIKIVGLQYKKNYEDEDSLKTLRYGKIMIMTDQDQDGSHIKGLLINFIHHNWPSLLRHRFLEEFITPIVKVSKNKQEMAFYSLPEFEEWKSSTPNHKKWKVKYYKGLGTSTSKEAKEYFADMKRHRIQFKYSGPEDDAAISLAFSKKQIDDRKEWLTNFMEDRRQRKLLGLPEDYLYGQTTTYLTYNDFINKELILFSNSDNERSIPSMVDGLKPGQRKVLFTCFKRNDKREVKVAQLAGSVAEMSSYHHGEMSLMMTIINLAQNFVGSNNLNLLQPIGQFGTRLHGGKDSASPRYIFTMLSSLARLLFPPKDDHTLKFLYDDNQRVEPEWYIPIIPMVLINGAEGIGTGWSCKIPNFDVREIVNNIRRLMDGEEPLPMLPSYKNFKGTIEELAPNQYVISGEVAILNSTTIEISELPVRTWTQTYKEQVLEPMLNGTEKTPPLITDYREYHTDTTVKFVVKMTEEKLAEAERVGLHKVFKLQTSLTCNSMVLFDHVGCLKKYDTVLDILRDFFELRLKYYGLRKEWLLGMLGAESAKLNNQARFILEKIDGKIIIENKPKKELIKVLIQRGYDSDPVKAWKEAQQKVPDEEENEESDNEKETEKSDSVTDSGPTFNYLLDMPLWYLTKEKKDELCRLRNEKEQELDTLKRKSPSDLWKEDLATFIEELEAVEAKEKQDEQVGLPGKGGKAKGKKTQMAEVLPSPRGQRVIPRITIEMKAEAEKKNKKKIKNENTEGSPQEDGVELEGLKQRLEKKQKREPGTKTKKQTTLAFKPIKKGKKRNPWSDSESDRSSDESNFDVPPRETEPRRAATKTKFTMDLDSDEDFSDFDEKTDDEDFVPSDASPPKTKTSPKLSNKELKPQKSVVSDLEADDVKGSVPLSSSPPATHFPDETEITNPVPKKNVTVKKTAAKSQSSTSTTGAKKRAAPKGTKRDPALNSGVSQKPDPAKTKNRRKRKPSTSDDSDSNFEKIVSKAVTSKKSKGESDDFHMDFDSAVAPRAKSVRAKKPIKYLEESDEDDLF

Turning to `COc1cccc2c1C(=O)c1c(O)c3c(c(O)c1C2=O)C[C@@](O)(C(=O)CO)C[C@@H]3O[C@H]1C[C@H](N)[C@H](O)[C@H](C)O1` [Doxorubicin, reference compound], the IC50 at DNA is 31.3 ± 1.8 µM; in the data set with MCF-7, 6.75 ± 0.4 µM.

For `Clc1cccc(Cl)c1C1CC(c2ccc(Nc3nc4ccccc4n4cnnc34)cc2)=NN1` (stereo not shown) [Compound 7d, N-{4-[5–(2,6-Dichlorophenyl)-4,5-dihydro-1H-pyrazol-3-yl]phenyl}-[1,2, 4]triazolo[4,3-a]quinoxalin-4-amine], the melting point fell in the range of 176 to 178 °C. Besides, the IC50 in the data set with HepG2 was found to be 12 ± 1.2 µM. In the data set on HCT116, the IC50 is 10.2 ± 0.22 µM. Besides, in the data set on MCF-7, the IC50 is 7.56 ± 0.92 µM.

The molecule `c1ccc(C2CC(c3ccc(Nc4nc5ccccc5n5cnnc45)cc3)=NN2)cc1` (stereo not shown) [Compound 7a, N-{4–(5-Phenyl-4,5-dihydro-1H-pyrazol-3-yl)phenyl}-[1,2, 4]triazolo[4,3-a]quinoxalin-4-amine] gave a melting point of 150 to 152 °C. Further, the IC50 with HepG2 amounted to 20.3 ± 1.9 µM. For the same molecule, in the data set on HCT116, the IC50 was 18.2 ± 1.6 µM. The IC50 with MCF-7 worked out at 15.4 ± 1.42 µM.

Take `Cc1ccc(C=CC(=O)c2ccc(Nc3nc4ccccc4n4cnnc34)cc2)cc1` [Compound 6e, 1-{4-([1,2, 4]Triazolo[4,3-a]quinoxalin-4-ylamino)phenyl}-3-(p-tolyl)prop-2-en-1-one]: the melting point fell in the range of 245 to 247 °C. The IC50 on DNA came out at 38 ± 0.4 µM. For the same molecule, inhibition against human Topo II was half-maximal at 1270 ± 400 nM (IC50). In addition, in the data set on HepG2, the IC50 was 10.9 ± 1.9 µM. In the data set with HCT116, the IC50 is 10.2 ± 1.7 µM. Moreover, the IC50 with MCF-7 came to 9.95 µM.

`O=[N+]([O-])c1cccc(C2CC(c3ccc(Nc4nc5ccccc5n5cnnc45)cc3)=NN2)c1` (stereo not shown) [Compound 7f, N-{4-[5–(3-Nitrophenyl)-4,5-dihydro-1H-pyrazol-3-yl]phenyl} -[1,2, 4]triazolo[4,3-a]quinoxalin-4-amine] returned a melting point of 195 to 197 °C. Moreover, the IC50 in the data set with HepG2 was 17.3 ± 1.9 µM. The IC50 in the data set on HCT116 is 16.2 ± 1.6 µM. Also, in the data set with MCF-7, the IC50 worked out at 14.5 ± 1.03 µM.

The molecule `COc1ccc(C=CC(=O)c2ccc(Nc3nc4ccccc4n4cnnc34)cc2)cc1` [Compound 6f, 1-{4-([1,2, 4]Triazolo[4,3-a]quinoxalin-4-ylamino)phenyl}-3–(4-methoxyphenyl)prop-2-en-1-one] gave a melting point of 250 to 253 °C. For the same molecule, the IC50 in the data set on HepG2 was found to be 18 ± 1.6 µM. For the same molecule, the IC50 in the data set with HCT116 amounted to 16.4 ± 1.7 µM. Also, in the data set on MCF-7, the IC50 turned out to be 13.2 ± 1.39 µM.

Regarding `Cc1ccc(C2CC(c3ccc(Nc4nc5ccccc5n5cnnc45)cc3)=NN2)cc1` (stereo not shown) [Compound 7e, N-{4-[5-(p-Tolyl)-4,5-dihydro-1H-pyrazol-3-yl]phenyl}-[1,2, 4]triazolo[4,3-a]quinoxalin-4-amine], the IC50 in the data set on VERO normal cells came to 55.09 ± 0.16 µM; at DNA, 29.1 ± 2.2 µM; against human Topo II, 890 ± 400 nM; with HepG2 it was 6.15 ± 1.2 µM; in the data set with HCT116, 5.75 ± 0.37 µM; in the data set with MCF-7, 3.41 ± 0.43 µM. Further, the “fold safer in VERO normal cells compared to breast cancer cell lines (MCF-7)” value (“fold safer in VERO normal cells” below) with VERO normal cells is given as 16.16 fold.

`O=C(C=Cc1ccccc1)c1ccc(Nc2nc3ccccc3n3cnnc23)cc1` [Compound 6a, 1-{4-([1,2, 4]Triazolo[4,3-a]quinoxalin-4-ylamino)phenyl}-3-phenylprop-2-en-1-one] gave a melting point of 275 to 277 °C. In addition, the IC50 in the data set on HepG2 was found to be 14.06 ± 0.13 µM. In the data set on HCT116, the IC50 came to 11.2 ± 1.2 µM. Also, the IC50 in the data set on MCF-7 worked out at 10.1 ± 1.31 µM.

Consider `CNc1nc2ccccc2n2c(CCc3ccccc3)cnc12` [EAPB0203], for which, in data set [1], the “fold more active than fotemustine” value was 110 fold and the “fold more active than imiquimod” value is reported as 45 fold.

On to `O=C(C=Cc1ccc(Cl)cc1)c1ccc(Nc2nc3ccccc3n3cnnc23)cc1` [Compound 6b, 1-{4-([1,2, 4]Triazolo[4,3-a]quinoxalin-4-ylamino)phenyl}-3–(4-chlorophenyl)prop-2-en-1-one], for which the melting point is 240 to 243 °C. The IC50 with HepG2 worked out at 35.2 ± 3.3 µM. Moreover, the IC50 in the data set on HCT116 was found to be 31.2 ± 1.4 µM. Also, in the data set on MCF-7, the IC50 was 25.8 ± 2.8 µM.

Regarding `O=C(C=Cc1ccc([N+](=O)[O-])cc1)c1ccc(Nc2nc3ccccc3n3cnnc23)cc1` [Compound 6h, 1-{4-([1,2, 4]Triazolo[4,3-a]quinoxalin-4-ylamino)phenyl}-3–(4-nitrophenyl)prop-2-en-1-one], the melting point was 261 to 263 °C. Also, the IC50 in the data set on HepG2 came out at 15.6 ± 1.2 µM. In addition, the concentration for half-maximal inhibition (IC50) in the data set on HCT116 was found to be 12.4 ± 1.1 µM. Also, in the data set on MCF-7, the IC50 worked out at 11.7 ± 1.68 µM.

As to `Clc1ccc(C2CC(c3ccc(Nc4nc5ccccc5n5cnnc45)cc3)=NN2)cc1` (stereo not shown) [Compound 7b, N-{4-[5–(4-Chlorophenyl)-4,5-dihydro-1H-pyrazol-3-yl]phenyl}-[1,2, 4]triazolo[4,3-a]quinoxalin-4-amine], the IC50 in the data set on VERO normal cells was 46.32 ± 0.2 µM; on DNA, 32.5 ± 3 µM; against human Topo II, 1050 ± 400 nM; in the data set with HepG2 it was 7.46 ± 0.13 µM; in the data set with HCT116 it was 6.9 ± 0.95 µM; with MCF-7, 5.88 ± 0.74 µM. The “fold safer in VERO normal cells” value in the data set on VERO normal cells was 7.88 fold.

`O=C(C=Cc1ccc(F)cc1)c1ccc(Nc2nc3ccccc3n3cnnc23)cc1` [Compound 6c, 1-{4-([1,2, 4]Triazolo[4,3-a]quinoxalin-4-ylamino)phenyl}-3–(4-fluorophenyl)prop-2-en-1-one] returned a melting point of 247 to 249 °C. Moreover, the IC50 with HepG2 came to 11.3 ± 1.1 µM. In the data set on HCT116, the IC50 came out at 9.53 ± 0.93 µM. The IC50 in the data set on MCF-7 came out at 8.61 ± 0.62 µM.

Regarding `Fc1ccc(C2CC(c3ccc(Nc4nc5ccccc5n5cnnc45)cc3)=NN2)cc1` (stereo not shown) [Compound 7c, N-{4-[5–(4-Fluorophenyl)-4,5-dihydro-1H-pyrazol-3-yl]phenyl}-[1,2, 4]triazolo[4,3-a]quinoxalin-4-amine], the half-maximal inhibitory concentration (IC50) in the data set with VERO normal cells is 48.11 ± 0.2 µM; at DNA, 31.2 ± 2.9 µM; on human Topo II it was 940 ± 400 nM; in the data set with HepG2 it was 6.33 ± 0.14 µM; in the data set with HCT116 it was 6.22 ± 0.63 µM; in the data set on MCF-7, 4.45 ± 0.14 µM. The “fold safer in VERO normal cells” value in the data set with VERO normal cells was 10.81 fold.

On to `O=C(C=Cc1cccc([N+](=O)[O-])c1)c1ccc(Nc2nc3ccccc3n3cnnc23)cc1` [Compound 6g, 1-{4-([1,2, 4]Triazolo[4,3-a]quinoxalin-4-ylamino)phenyl}-3–(3-nitrophenyl)prop-2-en-1-one], for which the melting point fell in the range of 257 to 259 °C. The IC50 in the data set on HepG2 is 17.2 ± 1.5 µM. Further, the IC50 with HCT116 turned out to be 13.7 ± 1.7 µM. For the same molecule, the IC50 in the data set on MCF-7 came out at 12.2 ± 1.03 µM.

With `O=C(C=Cc1c(Cl)cccc1Cl)c1ccc(Nc2nc3ccccc3n3cnnc23)cc1` [Compound 6d, 1-{4-([1,2, 4]Triazolo[4,3-a]quinoxalin-4-ylamino)phenyl}-3–(2,6-dichlorophenyl)prop-2-en-1-one], the melting point lay within 260 to 263 °C. Further, the IC50 with HepG2 turned out to be 16.9 ± 1.4 µM. Also, the IC50 in the data set on HCT116 was found to be 19.4 ± 1.7 µM. The IC50 in the data set on MCF-7 was 14.6 ± 1.57 µM.

In turn, `CC(=O)c1ccc(Nc2nc3ccccc3n3cnnc23)cc1` [Compound 5, 1-{4-([1,2, 4]Triazolo[4,3-a]quinoxalin-4-ylamino)phenyl}ethan-1-one] registered a melting point of 171 to 172 °C. Further, the IC50 in the data set on HepG2 amounted to 12.7 ± 0.13 µM. Besides, the IC50 with HCT116 turned out to be 11.4 ± 1.4 µM. The IC50 with MCF-7 is 10.3 ± 1.28 µM.

As for `O=[N+]([O-])c1ccc(C2CC(c3ccc(Nc4nc5ccccc5n5cnnc45)cc3)=NN2)cc1` (stereo not shown) [Compound 7g, N-{4-[5–(4-Nitrophenyl)-4,5-dihydro-1H-pyrazol-3-yl]phenyl} -[1,2, 4]triazolo[4,3-a]quinoxalin-4-amine], the IC50 with VERO normal cells was found to be 38.77 ± 0.16 µM; at DNA it was 36.5 ± 0.4 µM; at human Topo II, 1220 ± 400 nM; in the data set on HepG2, 9.51 ± 1.1 µM; in the data set on HCT116, 8.96 ± 0.37 µM; with MCF-7 it was 8.62 ± 0.95 µM. The “fold safer in VERO normal cells” value in the data set with VERO normal cells was 4.50 fold.
